In brackets after ≈: the same amount, converted by molar mass. Read-outs that look alike come from different tables or passages of the source.
Experiments:
[1] = In vitro bioconversion of pro-drug to parent drug in mouse blood, plasma, liver and kidney extract; type: in vitro ADME; details: for Peak Area of pro-drug: 37° C. heating block
Description: Compound concentrations were normalized to parent drug content by multiplying by a ratio of the relative molecular weights. Time 0 (minute) samples were prepared by immediately diluting with an equal volume of acetonitrile, vortexing, and transferring the samples to ice. […] Representative compounds of the present invention and the parent compound were analyzed by reversed-phase HPLC using an Agilent 1100 system. […] The solvent flow rate was 1 mL/min, and the column temperature was 40° C. Compound and parent peak identification was by diode array detection, monitored at 300 nm Conversion of the compounds (prodrugs) to parent drug was estimated by peak areas (A300 nm, mAU) of the respective agents. Mouse whole blood and plasma were collected from Swiss Webster mice, and stored at 4° C. until use (within 48 hours). […] For these experiments, fresh whole mouse livers or kidneys were homogenized for approximately 30 seconds (Omni-Tip™ disposable homogenizer tip) in 1 mL sterile saline and immediately stored on ice. Crude extracts (non-centrifuged) were incubated with the test compound or parent (20 μg/mL) and processed as described above.

Rat pharmacokinetics = type: in vivo, Sprague-Dawley rats; details: iv
Description: Male Sprague-Dawley rats (n=4) were fasted overnight, then dosed intravenously (IV) with a 1 mg/mL solution of a compound of the present invention (prodrug) or parent (compound of formula (M)) in 20% hydroxypropyl-β-cyclodextrin at 2 mg/kg. Blood samples were collected up to 24 hours post dose into tubes containing an anticoagulant. Blood samples were centrifuged for cell removal, and 100 μL plasma was transferred to a clean vial, placed on dry ice, and stored in a −70° C. freezer prior to analysis.
Plasma samples were prepared as follows. Two volumes of acetonitrile containing formic acid and internal standard were added to one volume of plasma to precipitate proteins. Samples were centrifuged (3000 g for 5 min) and supernatant removed for analysis by LC-MS-MS. Calibration standards were prepared by adding appropriate volumes of stock solution directly into plasma and treated identically to collected plasma samples. LC-MS-MS analysis was performed utilizing multiple reaction monitoring for detection of characteristic ions for the test compounds (pro-drugs), parent (compound of formula (M)) and internal standard.
Plasma concentrations were measured as described above to determine a concentration vs time profile. The area under the plasma concentration vs time curve (AUC) was calculated using the linear trapezoidal method. Fitting of the data to obtain pharmacokinetic parameters was carried out using non-compartmental analysis, with results as listed in Table 14, below. The term “NA” means the data was not available.

[2] = In vitro bioconversion of pro-drug to parent drug in human blood and plasma; type: in vitro ADME; details: for Peak Area of pro-drug: 37° C.; for Conversion to the parent compound (summary in words): human whole blood and plasma
Description: Compounds #1, #4, #6, #15, and #16, as well as the parent drug [(E)-7-(3-(2-amino-1-fluoroethylidene)piperidin-1-yl)-1-cyclopropyl-6-fluoro-8-methoxy-4-oxo-1,4-dihydroquinoline-3-carboxylic acid] (the compound of formula (M)) were dissolved to 1 mg/mL, and diluted to 20 ng/mL in fresh, chilled (4° C.) human or mouse whole blood or plasma, or kidney and liver extract (prepared from the respective fresh mouse organs as described below). Compound concentrations were normalized to parent drug content by multiplying by a ratio of the relative molecular weights. Time 0 (minute) samples were prepared by immediately diluting with an equal volume of acetonitrile, vortexing, and transferring the samples to ice. For additional time points, samples were placed in an incubator (Tables 4 and 5), or in a heating block (Tables 6-12) at 37° C. for the indicated time, then immediately vortexed with an equal volume of acetonitrile and placed on ice. Samples were centrifuged and further diluted with an equal volume of water to a final concentration of 25% acetonitrile prior to analysis by HPLC; diluted samples were retained in the cooled (4° C.) HPLC sample injection chamber pending injection.
Representative compounds of the present invention and the parent compound were analyzed by reversed-phase HPLC using an Agilent 1100 system. Samples were injected onto a Zorbax SB-C18 column (3.5 μM, 4.6×150 mm) with a guard cartridge, and developed on a gradient of 15% aqueous acetonitrile in 0.1% trifluoroacetic acid to 85% aqueous acetonitrile in 0.1% trifluoroacetic acid over 10 minutes. The solvent flow rate was 1 mL/min, and the column temperature was 40° C. Compound and parent peak identification was by diode array detection, monitored at 300 nm Conversion of the compounds (prodrugs) to parent drug was estimated by peak areas (A300 nm, mAU) of the respective agents.
For studies with Compounds #1, #4 and #6 (with results as listed in Tables 8, 9 and 10), fresh human whole blood and plasma samples were purchased from BioChemed Services, shipped in Styrofoam coolers maintained with frozen cold packs, and used within 48 hours of receipt. For studies with Compounds #15 and #16 (with results as listed in Tables 11 and 12), blood was drawn from volunteers and whole blood samples and isolated plasma prepared and immediately placed on ice. Whole blood and plasma samples were maintained at 4° C. and used within approximately 30 hours.

[3] = Aqueous solubility, modified procedure (saturated solutions, RP-HPLC); type: physicochemical; details: thermodynamic from solid, 100 mM phosphate buffer
Description: In these cases, the samples were targeted at a pH of 4 and 7 and were measured exclusively using 100 mM phosphate buffers. For both pH's, measured samples were initially prepared at ˜3 mg/ml and ˜10 mg/ml concentrations and for samples that dissolved rapidly, additional compound was added to the solution until saturated solutions were obtained.

[4] = tested on: Staphylococcus aureus (OC8525), a methicillin-resistant strain (MRSA); assay: In vivo efficacy in a mouse systemic infection model
Description: Female Swiss Webster mice weighing between 20-25 g were infected intraperitoneally with approximately 5×10^5 colony forming units (CFU) Staphylococcus aureus (OC8525), a methicillin-resistant strain (MRSA), in 7% mucin. One hour later, the animals were given the test compound intravenously or orally in a dose volume of 0.2 mL. Each animal test group consisted of eight animals. The test compounds were prepared immediately before dosing in 5% dextrose in water (D5W) and diluted further in D5W for i.v. and p.o. administration. The mice were observed over a three day period and ED50 values were calculated from the resulting % survival curves (see Table 13, below). The measured ED50 values were normalized to the content of (E)-7-(3-(2-amino-1-fluoroethylidene)piperidin-1-yl)-1-cyclopropyl-6-fluoro-8-methoxy-4-oxo-1,4-dihydroquinoline-3-carboxylic acid. For some compounds, in vivo efficacy was determined by testing a group of eight mice at a single dose level only. In these cases, the data presented in Table 13, below are reported as percent survival at the designated dose.

[5] = Solubility of parent compound in citrate buffer (HPLC); type: physicochemical; details: aqueous buffer, thermodynamic from solid, 50 mM citrate buffer
Description: The solubility of the parent compound (the compound of formula (M), also known as ((E)-7-(3-(2-amino-1-fluoroethylidene)piperidin-1-yl)-1-cyclopropyl-6-fluoro-8-methoxy-4-oxo-1,4-dihydroquinoline-3-carboxylic acid), was determined in a separate experiment, in which solutions containing 50 mM citrate buffer at various pH were added to the solid compound at various target concentrations. The samples were mixed overnight and the pH measured with a Beckman φ360 pH/Temp/mV Meter. The samples were then filtered using nylon centrifuge filters. The supernatant was diluted and the concentration was measured with HPLC.

[6] = fresh human blood (volunteers), 0 min
[7] = fresh human blood (volunteers), 5 min
[8] = fresh human blood (volunteers), 7.5 min
[9] = fresh human blood (volunteers), 10 min
[10] = fresh human blood (volunteers), 15 min
[11] = fresh human blood (volunteers), […]
[12] = fresh human plasma (volunteers), 0 min
[13] = fresh human plasma (volunteers), 5 min
[14] = fresh human plasma (volunteers), 7.5 min
[15] = fresh human plasma (volunteers), 10 min
[16] = fresh human plasma (volunteers), 15 min
[17] = fresh human plasma (volunteers), […]
[18] = pH 4, aqueous buffer, read-out: Aqueous Solubility pH~4
[19] = pH 7, aqueous buffer, read-out: Aqueous Solubility pH~7
[20] = Staphylococcus aureus, 72 h, Swiss Webster mice infected i.p. with MRSA, oral dose 1 h later, 3 day survival, normalized to parent content, read-out: ED50 p.o.
[21] = Staphylococcus aureus, iv, 72 h, Swiss Webster mice infected i.p. with MRSA, i.v. dose 1 h later, 3 day survival, normalized to parent content, read-out: ED50 i.v.
[22] = Sprague-Dawley, in vivo, male rats, 2 mg/kg i.v., analyte: the administered compound itself

Peak Area of pro-drug ([1]; fresh mouse blood, 0 min) [mAU] | Peak Area of pro-drug ([1]; fresh mouse blood, 5 min) [mAU] | Peak Area of pro-drug ([1]; fresh mouse blood, 7.5 min) [mAU] | Peak Area of pro-drug ([1]; fresh mouse blood, 10 min) [mAU] | Peak Area of pro-drug ([1]; fresh mouse blood, 15 min) [mAU] | Peak Area of pro-drug ([1]; fresh mouse blood, […]) [mAU] | Peak Area of pro-drug ([1]; fresh mouse plasma, 0 min) [mAU] | Peak Area of pro-drug ([1]; fresh mouse plasma, 5 min) [mAU] | Peak Area of pro-drug ([1]; fresh mouse plasma, 7.5 min) [mAU] | Peak Area of pro-drug ([1]; fresh mouse plasma, 10 min) [mAU] | Peak Area of pro-drug ([1]; fresh mouse plasma, 15 min) [mAU] | Peak Area of pro-drug ([1]; fresh mouse plasma, […]) [mAU] | Conversion to the parent drug in vivo (in words) (Rat pharmacokinetics; in vivo) | Peak Area of pro-drug [2, 6] [mAU] | Peak Area of pro-drug [2, 7] [mAU] | Peak Area of pro-drug [2, 8] [mAU] | Peak Area of pro-drug [2, 9] [mAU] | Peak Area of pro-drug [2, 10] [mAU] | Peak Area of pro-drug [2, 11] [mAU] | Peak Area of pro-drug [2, 12] [mAU] | Structure (SMILES) | also measured
265 | 75 | 36 | 29 | 17 | 123 | 488 | 106 | 72 | 62 | 22 | 182 | rapidly converted to the parent drug | 242 | 23 | 10 | 8 | 6 | 59 | 330 | COc1c(N2CCC/C(=C(\F)CNC(=O)[C@@H]3CCCN3C(=O)[C@@H](N)CCCCN)C2)c(F)cc2c(=O)c(C(=O)O)cn(C3CC3)c12.Cl.Cl [Compound 15, 1-Cyclopropyl-7-[3-(2-{[(2S)-1-((2S)-2,6-diamino-hexanoyl)-pyrrolidine-2-carbonyl]-amino}-1-fluoro-ethylidene)-piperidin-1-yl]-6-fluoro-8-methoxy-4-oxo-1,4-dihydro-quinoline-3-carboxylic acid dihydrochloride] | Conversion to the parent compound (summary in words) ([1]; mouse whole blood and plasma): converted to the parent; Peak Area of pro-drug [2, 13]: 26 mAU; Peak Area of pro-drug [2, 14]: 14 mAU; Peak Area of pro-drug [2, 15]: 10 mAU; Peak Area of pro-drug [2, 16]: 11 mAU; Peak Area of pro-drug [2, 17]: 75 mAU; Conversion to the parent compound (summary in words) [2]: converted to the parent; solubility at 18 h [3, 18]: > 4600 µg/mL; solubility at 18 h [3, 19]: > 11100 µg/mL; ED50 [4, 20]: > 13 mg/kg; ED50 [4, 21]: 1.6 mg/kg
332 | 131 | 99 | 71 | 34 | 174 | 406 | 220 | 178 | 149 | 98 | 285 | rapidly converted to the parent drug | 370 | 332 | 342 | 374 | 359 | 336 | 351 | COc1c(N2CCC/C(=C(\F)CNC(=O)CNC(=O)[C@@H](N)CCC(=O)O)C2)c(F)cc2c(=O)c(C(=O)O)cn(C3CC3)c12.Cl [Compound 16, 7-(3-{2-[2-((2S)-2-Amino-4-carboxy-butyrylamino)-acetylamino]-1-fluoro-ethylidene}-piperidin-1-yl)-1-cyclopropyl-6-fluoro-8-methoxy-4-oxo-1,4-dihydro-quinoline-3-carboxylic acid hydrochloride] | Conversion to the parent compound (summary in words) ([1]; mouse plasma): converted to an unknown metabolite, but not substantially to the parent drug; Conversion to the parent compound (summary in words) ([1]; mouse whole blood): converted to the parent in mouse whole blood via the intermediacy of a metabolite of unknown identity; Peak Area of pro-drug [2, 13]: 355 mAU; Peak Area of pro-drug [2, 14]: 366 mAU; Peak Area of pro-drug [2, 15]: 372 mAU; Peak Area of pro-drug [2, 16]: 371 mAU; Peak Area of pro-drug [2, 17]: 350 mAU; Conversion to the parent compound (summary in words) [2]: not measured to convert to the parent drug; solubility at 18 h [3, 18]: > 3690 µg/mL; solubility at 18 h [3, 19]: > 3360 µg/mL; ED50 [4, 20]: > 13.9 mg/kg; ED50 [4, 21]: 1.6 mg/kg
 |  |  |  |  |  |  |  |  |  |  |  |  |  |  |  |  |  |  |  | COc1c(N2CCC/C(=C(\F)CN)C2)c(F)cc2c(=O)c(C(=O)O)cn(C3CC3)c12 [Compound (M), (E)-7-(3-(2-amino-1-fluoroethylidene)piperidin-1-yl)-1-cyclopropyl-6-fluoro-8-methoxy-4-oxo-1,4-dihydroquinoline-3-carboxylic acid] | solubility ([5]; pH 4.11, mixed overnight): 140 µg/mL (≈ 334 µM); solubility ([5]; pH 6.75, mixed overnight): 40 µg/mL (≈ 95.4 µM); AUC (Rat pharmacokinetics; [22]): 718 ng·h/mL; Cmax (Rat pharmacokinetics; [22]): 805 ng/mL; clearance (Rat pharmacokinetics; [22]): 47.1 mL/min/kg; Vd (Rat pharmacokinetics; Sprague-Dawley, in vivo, male rats, 2 mg/kg i.v., analyte: the administered compound itself, read-out: Vss): 6.08 L/kg; half-life (Rat pharmacokinetics; Sprague-Dawley, plasma, male rats, 2 mg/kg i.v., analyte: the administered compound itself): 90 min; ED50 ([4]; administered i.v., mouse MRSA systemic infection): 0.71 mg/kg/day; ED50 ([4]; administered p.o., mouse MRSA systemic infection): 10.6 mg/kg/day

Source: patent US20110172193A1, “PRO-DRUGS OF (E)-7-(3-(2-AMINO-1-FLUOROETHYLIDENE)PIPERIDIN-1-YL)-1-CYCLOPROPYL-6-FLUORO-8-METHOXY-4-OXO-1,4-DIHYDROQUINOLINE-3-CARBOXYLIC ACID” (priority 2010, published 2011)
